{
  "source": "patent US20260199254A1",
  "about": "“COMPOSITIONS AND METHODS OF USE THEREOF FOR INCREASING IMMUNE RESPONSES” (priority 2022, published 2026)",
  "key": {"CFSE-labeled BMDCs": {"system": "CFSE-labeled BMDCs", "assay": "Transwell DC migration assay", "type": "cell-based, mouse", "settings": "5 or 10 μg/mL, 24 h, B16F10-OVA in lower chamber"}, "[1]": {"system": "B16F10-OVA-tumor-bearing C57BL/6 mice"}, "BMDCs [2]": {"system": "BMDCs", "assay": "[Ca2+]int measurement (Fluo-3 AM)", "type": "cell-based, mouse", "settings": "5 or 10 μg/mL Ca", "method": "Fluo-3 AM kit (Cayman, 14960) was used to measure [Ca2+]int in BMDCs after treatment with AnCHNPs. Briefly, BMDCs were seeded into a 96-well plate at a density of 1×10^4 cells per well and incubated overnight. At different time points (0, 1, 2, 4, 8, and 24 hrs), medium was taken from the well, replenished with prewarmed (37° C.) probe-containing medium (to a final concentration of 5 μM). Cells were incubated for 30 mins under the same growth conditions. Then the loading solution was replaced with fresh medium, removing dye molecules nonspecifically attached to cell surface. Cells were incubated for another 30 mins to allow for complete de-esterification of the acetoxymethyl esters. Fluorescence (ex/em: 485/520 nm) was recorded on a microplate reader (Synergy Mx, BioTeK)."}, "BMDCs [3]": {"system": "BMDCs", "assay": "BMDC maturation, flow cytometry for MHC-II and CD205", "type": "cell-based, mouse", "settings": "5 or 10 μg/mL, 24 h, no cancer cells", "method": "Maturation BMDCs were seeded onto a 6-well plate at a density of 1×10^6 cells per well one day before the experiment. BMDCs were treated with PBS, CaCl2 solution (5 or 10 μg/mL), and AnCHNPs (5 or 10 μg/mL). After incubation for 24 hrs, supernatant was removed, and BMDCs were harvested by cell lifter. BMDCs were subsequently stained with MHCII-FITC (#107616) and CD205-APC (#138206) and analyzed flow cytometry. Also, BMDCs were treated with SiO2-PEG shell (10 μg/mL), harvested after 24 hrs incubation, stained with MHCII-FITC (#107616), CD80-PerCP-Cy5.5 (#560526), CD86-BV605 (#563055), CD40-PE (#12-0401-83), and OVA-APC (#17-5743-82), and analyzed by flow cytometry."}, "[4]": {"system": "BMDCs/B16F10-OVA (pre-irradiated, 100 Gy) co-cultures", "assay": "DC activation and antigen-presentation in co-culture (flow cytometry, ELISA)", "type": "cell-based, mouse", "settings": "comparators"}, "EL4 cells [5]": {"system": "EL4 cells", "assay": "Intracellular calcium levels (Fluo-3AM)", "type": "cell-based", "settings": "same calcium concentration", "method": "Changes in intracellular calcium levels were measured using Fluo-3AM as an indicator."}, "EL4 cells [6]": {"system": "EL4 cells", "settings": "dose as equivalent calcium concentration"}, "BMDCs [7]": {"system": "BMDCs", "assay": "Cell uptake of Cy5-labeled nanoparticles by flow cytometry", "type": "cell-based, mouse", "settings": "co-incubation with Cy5-labeled AnCHNPs 5 μg/mL", "method": "BMDCs were seeded into 6-well plates at a density of 1×10^6 cells per well and incubated overnight. The cells were then treated with Cy-5 labeled PCHNPs and AnCHNPs (5 μg/mL) for 2 hrs. Furthermore, different endocytosis inhibitors Sodium azide (NaN3, 99.5%, Sigma-Aldrich, Lot #S2002), Dynasore (C18H14N2O4, 98%, Sigma-Aldrich, Lot #324410), Nystatin (Sigma-Aldrich, Lot #N4014), Chlorpromazine (C17H19ClN2S·HCl, 98%, Sigma-Aldrich, Lot #C8138) were used. The Fluorescence of Cy-5 taken up by DCs were measured by flow cytometry."}, "[8]": {"system": "C57BL/6 mice bearing B16F10-OVA tumors", "assay": "Therapy study, combination with chemotherapy (carboplatin)", "type": "in vivo", "settings": "carboplatin alone, 40 mg/kg i.p.", "method": "Combination with chemotherapy: This was investigated in C57BL/6 mice bearing B16F10-OVA tumors. When tumor sizes reached ~50 mm3, the animals were randomized to receive the following treatments (n=5 for each group): (1) PBS (i.t., 50 μL*2, Day 0 and Day 2); (2) Carboplatin (i.p., 40 mg/kg, 100 μL, Day 0); (3) Carboplatin (i.p., 40 mg/kg, 100 μL, Day 0)+AnCHNPs (i.t., 200 μg/kg*2, 50 μL, Day 0 and Day 2). The tumor size and body weight were inspected daily. The tumor was measured in two dimensions with a caliper and tumor volume was estimated as (length)×(width) 2/2."}, "EL4 cells [9]": {"system": "EL4 cells", "assay": "Cellular uptake of Cy5-labelled nanoparticles in EL4 cells", "type": "cell-based", "settings": "EL4, co-incubation"}},
  "data": [
    {"compound": "[Ca+2].[Cl-].[Cl-]", "note": "[CaCl2, calcium chloride]", "values": [
      {"measurement": "numbers of DCs migrating to the bottom chamber", "setting": "CFSE-labeled BMDCs", "result": "minimally affected DC migration"},
      {"measurement": "IFN-γ+ CTL frequency, splenocytes co-incubated with B16F10-OVA cells ex vivo", "setting": "[1]; 6 h co-incubation", "result": "marginal T cell activation"},
      {"measurement": "change of serum cytokine levels (IL-1β, IL-6, TNF-α, IFN-γ, IL-12 elevated, IL-10 decreased)", "setting": "[1]; Day 3 and Day 7, relative to PBS control, comparator", "result": "not"},
      {"measurement": "frequency of Tregs (CD45+CD3+CD4+Foxp3+) in tumors", "setting": "[1]; RT 10 Gy + 200 μg/kg i.t.", "result": "minimum impact"},
      {"measurement": "tumor-infiltration of cytotoxic T cells (CTLs, CD45+CD3+CD8+)", "setting": "[1]; RT 10 Gy + 200 μg/kg i.t., tumor, Day 7", "result": "minimum impact"},
      {"measurement": "[Ca2+]int change", "setting": "BMDCs [2]", "result": "little [Ca^2+]int increase"},
      {"measurement": "CD205 expression in DCs", "setting": "BMDCs [3]", "result": "no impact"},
      {"measurement": "population and expression levels (MFI) of MHC-II+ DCs", "setting": "BMDCs [3]; relative to untreated DCs", "result": "no impact"},
      {"measurement": "impact on DC activation", "setting": "[4]", "result": "no positive impact on DC activation"},
      {"measurement": "intracellular calcium levels", "setting": "EL4 cells [5]", "result": "did not increase cellular calcium levels"},
      {"measurement": "Ca2+ concentration at which an effect on cell viability / significant toxicity appears", "setting": "EL4 cells [6]", "result": "≥ 100", "unit": "µg/mL"}
    ]},
    {"compound": "[N-]=[N+]=[N-].[Na+]", "note": "[azide, Sodium azide]", "values": [
      {"measurement": "effect of endocytosis inhibitor on AnCHNPs uptake by DCs", "setting": "BMDCs [7]", "result": "reduced"}
    ]},
    {"compound": "N.N.O=C([O-])C1(C(=O)[O-])CCC1.[Pt+2]", "note": "[carboplatin]", "values": [
      {"measurement": "average survival", "setting": "[8]", "result": 15, "unit": "days"},
      {"measurement": "time by which all animals died", "setting": "[8]", "result": "≤ 3", "unit": "weeks"},
      {"measurement": "tumor growth", "setting": "[8]", "result": "only marginally retarded tumor growth"}
    ]},
    {"compound": "CN(C)CCCN1c2ccccc2Sc2ccc(Cl)cc21", "note": "[chlorpromazine, Chlorpromazine]", "values": [
      {"measurement": "effect of endocytosis inhibitor on AnCHNPs uptake by DCs", "setting": "BMDCs [7]", "result": "inhibited"}
    ]},
    {"compound": "O=C(N/N=C/c1ccc(O)c(O)c1)c1cc2ccccc2cc1O", "note": "[dynasore, Dynasore]", "values": [
      {"measurement": "effect of endocytosis inhibitor on AnCHNPs uptake by DCs", "setting": "BMDCs [7]", "result": "inhibited"},
      {"measurement": "effect of endocytosis inhibitor on uptake of PMA@CCNP-Ab", "setting": "EL4 cells [9]", "result": "decreased"}
    ]},
    {"compound": "C[C@@H]1[C@H](O)[C@@H](C)/C=C/C=C/CC/C=C/C=C/C=C/C=C/C(O[C@H]2O[C@H](C)[C@@H](O)[C@H](N)[C@@H]2O)CC2O[C@](O)(CC(O)C(O)CCC(O)CC(O)CC(O)CC(=O)O[C@H]1C)CC(O)C2C(=O)O", "note": "(some centres unmarked) [nystatin, Nystatin]", "values": [
      {"measurement": "effect of endocytosis inhibitor on AnCHNPs uptake by DCs", "setting": "BMDCs [7]", "result": "had no effect on the particle uptake"},
      {"measurement": "effect of endocytosis inhibitor on uptake of PMA@CCNP-Ab", "setting": "EL4 cells [9]", "result": "did not inhibit cellular uptake"}
    ]}
  ]
}
